According to ChEMBL document CHEMBL5346952, “Dimer Peptide Ligands of Vascular Endothelial Growth Factor: Optimizing Linker Length for High Affinity and Antiangiogenic Activity” (J Med Chem, 2023):
Starred links: 1 amine or outer side, 2 acyl side, 3 side chain; linkers in the order of their positions; H or OH if unused. Positions of bridges follow the written chain, without caps; N, C: chain ends. Residues, ends and D or L forms follow the SMILES beside them. Chains are numbered I, II in the order given. *: point of attachment. X1 = O=C(CCOCCOCCOCCOCCOCCOCCOCCOCCOCCOCCOCCOCCOCCOCCOCCOCCOCCOCCOCCOCCOCCOCCOCCOCCOCCC(=O)[*:2])[*:1]; X2 = O=C(O)CCOCCOCCOCCOCCOCCOCCOCCOCCOCCOCCOCCOCCOCCOCCOCCOCCOCCOCCOCCOCCOCCOCCOCCOCCOCCC(=O)*; CO(CH2CH2O)5CH2CH2CO = O=C(CCOCCOCCOCCOCCOCCC(=O)[*:2])[*:1]

How the values were obtained:
[1] = biological target: T1, Vascular endothelial growth factor A, long form (Homo sapiens) (UniProt P15692); assay: Binding affinity to human VEGF (13 to 107 residues) expressed in Escherichia coli Rosetta (DE3) cells assessed as change in entropy at 37 degreeC by isothermal titration calorimetry analysis
T1 sequence (whole entry): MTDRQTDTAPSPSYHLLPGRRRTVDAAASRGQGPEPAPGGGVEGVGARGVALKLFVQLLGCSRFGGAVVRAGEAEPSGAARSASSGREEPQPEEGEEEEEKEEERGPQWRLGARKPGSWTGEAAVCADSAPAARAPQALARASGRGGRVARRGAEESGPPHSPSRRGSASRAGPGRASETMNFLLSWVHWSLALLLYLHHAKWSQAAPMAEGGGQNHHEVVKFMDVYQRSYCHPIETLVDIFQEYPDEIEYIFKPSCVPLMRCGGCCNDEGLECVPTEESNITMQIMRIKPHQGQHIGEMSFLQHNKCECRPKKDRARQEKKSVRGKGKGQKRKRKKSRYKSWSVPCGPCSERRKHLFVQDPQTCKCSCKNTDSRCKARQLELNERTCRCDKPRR

[2] = biological target: T1, Vascular endothelial growth factor A, long form (Homo sapiens); assay: Binding affinity to human VEGF (13 to 107 residues) expressed in Escherichia coli Rosetta (DE3) cells assessed as Gibbs free energy change at 20 degreeC by isothermal titration calorimetry analysis
[3] = biological target: T1, Vascular endothelial growth factor A, long form (Homo sapiens); assay: Binding affinity to human VEGF (13 to 107 residues) expressed in Escherichia coli Rosetta (DE3) cells assessed as change in entropy at 20 degreeC by isothermal titration calorimetry analysis
[4] = biological target: T2, Vascular endothelial growth factor A, long form (Homo sapiens, UniProt P15692); assay: Binding affinity to human VEGF (13 to 107 residues) expressed in Escherichia coli Rosetta (DE3) cells assessed as dissociation constant at 20 degreeC by isothermal titration calorimetry analysis
T2 sequence (P15692 whole entry): T1 sequence (whole entry)

[5] = biological target: T1, Vascular endothelial growth factor A, long form (Homo sapiens); assay: Binding affinity to human VEGF (13 to 107 residues) expressed in Escherichia coli Rosetta (DE3) cells assessed as change in enthalpy at 20 degreeC by isothermal titration calorimetry analysis
[6] = biological target: T1, Vascular endothelial growth factor A, long form (Homo sapiens); assay: Binding affinity to human VEGF (13 to 107 residues) expressed in Escherichia coli Rosetta (DE3) cells assessed as change in heat capacity at 20 degreeC by isothermal titration calorimetry analysis
HUVEC [7] = assay: Antiangiogenic activity in human HUVEC cells assessed as inhibition of VEGFA-induced capillary tube formation incubated for 6 hrs by matrigel based microscopic analysis; assay type: functional, cell-based
[8] = biological target: T1, Vascular endothelial growth factor A, long form (Homo sapiens); assay: Binding affinity to human VEGF (13 to 107 residues) expressed in Escherichia coli Rosetta (DE3) cells assessed as Gibbs free energy change at 37 degreeC by isothermal titration calorimetry analysis
[9] = biological target: T2, Vascular endothelial growth factor A, long form; assay: Binding affinity to human VEGF (13 to 107 residues) expressed in Escherichia coli Rosetta (DE3) cells assessed as dissociation constant at 37 degreeC by isothermal titration calorimetry analysis
[10] = biological target: T1, Vascular endothelial growth factor A, long form (Homo sapiens); assay: Binding affinity to human VEGF (13 to 107 residues) expressed in Escherichia coli Rosetta (DE3) cells assessed as change in enthalpy at 37 degreeC by isothermal titration calorimetry analysis
HUVEC [11] = assay: Antiangiogenic activity in human HUVEC cells assessed as inhibition of VEGFA-induced cell migration incubated for 12 hrs by wound healing assay; assay type: functional, cell-based
[12] = biological target: T1, Vascular endothelial growth factor A, long form (Homo sapiens); assay: Binding affinity to human VEGF (13 to 107 residues) expressed in Escherichia coli Rosetta (DE3) cells assessed as change in entropy at 37 degreeC by direct titration based isothermal titration calorimetry analysis
[13] = biological target: T1, Vascular endothelial growth factor A, long form (Homo sapiens); assay: Binding affinity to human VEGF (13 to 107 residues) expressed in Escherichia coli Rosetta (DE3) cells assessed as change in enthalpy at 20 degreeC by direct titration based isothermal titration calorimetry analysis
[14] = biological target: T1, Vascular endothelial growth factor A, long form (Homo sapiens); assay: Binding affinity to human VEGF (13 to 107 residues) expressed in Escherichia coli Rosetta (DE3) cells assessed as change in enthalpy at 37 degreeC by reverse titration based isothermal titration calorimetry analysis
[15] = biological target: T1, Vascular endothelial growth factor A, long form (Homo sapiens); assay: Binding affinity to human VEGF (13 to 107 residues) expressed in Escherichia coli Rosetta (DE3) cells assessed as change in entropy at 37 degreeC by reverse titration based isothermal titration calorimetry analysis
[16] = biological target: T1, Vascular endothelial growth factor A, long form (Homo sapiens); assay: Binding affinity to human VEGF (13 to 107 residues) expressed in Escherichia coli Rosetta (DE3) cells assessed as change in entropy at 20 degreeC by reverse titration based isothermal titration calorimetry analysis
[17] = biological target: T1, Vascular endothelial growth factor A, long form (Homo sapiens); assay: Binding affinity to human VEGF (13 to 107 residues) expressed in Escherichia coli Rosetta (DE3) cells assessed as change in entropy at 20 degreeC by direct titration based isothermal titration calorimetry analysis
[18] = biological target: T1, Vascular endothelial growth factor A, long form (Homo sapiens); assay: Binding affinity to human VEGF (13 to 107 residues) expressed in Escherichia coli Rosetta (DE3) cells assessed as change in enthalpy at 37 degreeC by direct titration based isothermal titration calorimetry analysis
[19] = biological target: T1, Vascular endothelial growth factor A, long form (Homo sapiens); assay: Binding affinity to human VEGF (13 to 107 residues) expressed in Escherichia coli Rosetta (DE3) cells assessed as change in enthalpy at 20 degreeC by reverse titration based isothermal titration calorimetry analysis
[20] = biological target: T2, Vascular endothelial growth factor A, long form; assay: Binding affinity to human VEGF (13 to 107 residues) expressed in Escherichia coli Rosetta (DE3) cells assessed as dissociation constant at 37 degreeC by direct titration based isothermal titration calorimetry analysis
[21] = biological target: T2, Vascular endothelial growth factor A, long form; assay: Binding affinity to human VEGF (13 to 107 residues) expressed in Escherichia coli Rosetta (DE3) cells assessed as dissociation constant at 20 degreeC by reverse titration based isothermal titration calorimetry analysis
[22] = biological target: T2, Vascular endothelial growth factor A, long form; assay: Binding affinity to human VEGF (13 to 107 residues) expressed in Escherichia coli Rosetta (DE3) cells assessed as dissociation constant at 20 degreeC by direct titration based isothermal titration calorimetry analysis
[23] = biological target: T2, Vascular endothelial growth factor A, long form; assay: Binding affinity to human VEGF (13 to 107 residues) expressed in Escherichia coli Rosetta (DE3) cells assessed as dissociation constant at 37 degreeC by reverse titration based isothermal titration calorimetry analysis

| SMILES | -TdeltaS [1] [kcal/mol] | deltaG [2] [kcal/mol] | -TdeltaS [3] [kcal/mol] | Kd [4] [nM] | deltaH [5] [kcal/mol] | DeltaCp [6] [kcal/mol/K] | Activity (HUVEC [7]) | deltaG [8] [kcal/mol] | Kd [9] [nM] | deltaH [10] [kcal/mol] | Activity (HUVEC [11]) | further results |
| --- | --- | --- | --- | --- | --- | --- | --- | --- | --- | --- | --- | --- |
| CC[C@H](C)[C@@H]1NC(=O)[C@H](CC(=O)O)NC(=O)[C@@H](NC(C)=O)CSSC[C@@H]2NC(=O)[C@H](CCCCNC(=O)C[C@@H](C(=O)N[C@@H](CC(C)C)C(N)=O)NC(=O)[C@H](CCC(=O)O)NC(=O)[C@H](Cc3ccccc3)NC2=O)NC(=O)[C@H](Cc2c[nH]c3ccccc23)NC(=O)[C@H](CCC(=O)O)NC(=O)[C@H](Cc2c[nH]c3ccccc23)NC(=O)[C@H](CCCCNC(=O)CCOCCOCCOCCOCCOCCOCCOCCOCCOCCOCCOCCOCCOCCOCCOCCOCCOCCOCCOCCOCCOCCOCCOCCOCCOCCC(=O)O)NC(=O)[C@H](C(C)C)NC(=O)[C@H](Cc2cnc[nH]2)NC1=O (Ac-CDIHVK(X2)WEWKCFEDL-NH2; disulfide 1-11; lactam 10-14) | 15.5 | -9.12 | 9.51 | 158 | -18.6 | -0.31 | Dose-Dependent Effect | -8.5 | 1030 | -24 | Dose-Dependent Effect | – |
| CC[C@H](C)[C@@H]1NC(=O)[C@H](CC(=O)O)NC(=O)[C@@H](NC(C)=O)CSSC[C@@H]2NC(=O)[C@H](CCCCNC(=O)C[C@@H](C(=O)N[C@@H](CC(C)C)C(N)=O)NC(=O)[C@H](CCC(=O)O)NC(=O)[C@H](Cc3ccccc3)NC2=O)NC(=O)[C@H](Cc2c[nH]c3ccccc23)NC(=O)[C@H](CCC(=O)O)NC(=O)[C@H](Cc2c[nH]c3ccccc23)NC(=O)[C@H](CCCCNC(=O)CCOCCOCCOCCOCCOCCC(=O)NCCCC[C@@H]2NC(=O)[C@H](C(C)C)NC(=O)[C@H](Cc3cnc[nH]3)NC(=O)[C@H]([C@@H](C)CC)NC(=O)[C@H](CC(=O)O)NC(=O)[C@@H](NC(C)=O)CSSC[C@@H]3NC(=O)[C@H](CCCCNC(=O)C[C@@H](C(=O)N[C@@H](CC(C)C)C(N)=O)NC(=O)[C@H](CCC(=O)O)NC(=O)[C@H](Cc4ccccc4)NC3=O)NC(=O)[C@H](Cc3c[nH]c4ccccc34)NC(=O)[C@H](CCC(=O)O)NC(=O)[C@H](Cc3c[nH]c4ccccc34)NC2=O)NC(=O)[C@H](C(C)C)NC(=O)[C@H](Cc2cnc[nH]2)NC1=O (I: Ac-CDIHVKWEWKCFEDL-NH2 / II: Ac-CDIHVKWEWKCFEDL-NH2; disulfide I:1-I:11, II:1-II:11; linker I:6-II:6 via CO(CH2CH2O)5CH2CH2CO; lactam I:10-I:14, II:10-II:14) | 36.4 | -10.4 | 27.3 | 18 | -37.7 | -0.51 | Dose-Dependent Effect | -10 | 89 | -46.4 | Dose-Dependent Effect | – |
| CC[C@H](C)[C@@H]1NC(=O)[C@H](CC(=O)O)NC(=O)[C@@H](NC(C)=O)CSSC[C@@H]2NC(=O)[C@H](CCCCNC(=O)C[C@@H](C(=O)N[C@@H](CC(C)C)C(N)=O)NC(=O)[C@H](CCC(=O)O)NC(=O)[C@H](Cc3ccccc3)NC2=O)NC(=O)[C@H](Cc2c[nH]c3ccccc23)NC(=O)[C@H](CCC(=O)O)NC(=O)[C@H](Cc2c[nH]c3ccccc23)NC(=O)[C@H](CCCCNC(=O)CCOCCOCCOCCOCCOCCOCCOCCOCCOCCOCCOCCOCCOCCOCCOCCOCCOCCOCCOCCOCCOCCOCCOCCOCCOCCC(=O)NCCCC[C@@H]2NC(=O)[C@H](C(C)C)NC(=O)[C@H](Cc3cnc[nH]3)NC(=O)[C@H]([C@@H](C)CC)NC(=O)[C@H](CC(=O)O)NC(=O)[C@@H](NC(C)=O)CSSC[C@@H]3NC(=O)[C@H](CCCCNC(=O)C[C@@H](C(=O)N[C@@H](CC(C)C)C(N)=O)NC(=O)[C@H](CCC(=O)O)NC(=O)[C@H](Cc4ccccc4)NC3=O)NC(=O)[C@H](Cc3c[nH]c4ccccc34)NC(=O)[C@H](CCC(=O)O)NC(=O)[C@H](Cc3c[nH]c4ccccc34)NC2=O)NC(=O)[C@H](C(C)C)NC(=O)[C@H](Cc2cnc[nH]2)NC1=O (I: Ac-CDIHVKWEWKCFEDL-NH2 / II: Ac-CDIHVKWEWKCFEDL-NH2; disulfide I:1-I:11, II:1-II:11; linker I:6-II:6 via X1; lactam I:10-I:14, II:10-II:14) | 39.5 | -10.8 | 26.7 | 9 | -37.5 | -0.75 | Dose-Dependent Effect | -10.8 | 26 | -50.3 | Dose-Dependent Effect | deltaS [12]: -127 cal/mol.K; deltaH [13]: -35.6 kcal/mol; deltaH [14]: -50.6 kcal/mol; deltaS [15]: -127 cal/mol.K; deltaS [16]: -91.1 cal/mol.K; deltaS [17]: -95.4 cal/mol.K; deltaH [18]: -50.2 kcal/mol; deltaH [19]: -37.4 kcal/mol; Kd [20]: 26 nM; Kd [21]: 11 nM; Kd [22]: 12 nM; Kd [23]: 14 nM |
